The text below walks through data of ChEMBL document CHEMBL1139689, “Discovery and preliminary structure-activity relationship studies of novel benzotriazine based compounds as Src inhibitors” (Bioorg Med Chem Lett, 2006).

A value given as a limit tells only on which side of the number the result lay.

Assay [1] has as its target Proto-oncogene tyrosine-protein kinase Src (Homo sapiens, UniProt P12931).
The target in assay [2] is Tyrosine-protein kinase Lyn (Homo sapiens, UniProt P07948). The assay is described as follows: Inhibition of Lyn.
Assay [3] deals with Tyrosine-protein kinase CSK (Homo sapiens, UniProt P41240). In words: Inhibition of CSK.
For assay [4], the target named is Tyrosine-protein kinase ABL1 (Homo sapiens, UniProt P00519). The assay is described as follows: Inhibition of Abl.
A further assay concerns the target Angiopoietin-1 receptor (Homo sapiens, UniProt Q02763). In words: Inhibition of Tie2.
Assay [5] deals with RAF proto-oncogene serine/threonine-protein kinase (Homo sapiens, UniProt P04049). In words: Inhibition of Raf1 kinase.
Assay [6] has as its target Tyrosine-protein kinase Blk (Homo sapiens, UniProt P51451). In words: Inhibition of Blk.
Assay [7] has as its target Ribosomal protein S6 kinase beta-1 (Homo sapiens, UniProt P23443). The assay is described as follows: Inhibition of p70S6K.
For assay [8], the target named is Tyrosine-protein kinase ABL1 (Homo sapiens, UniProt P00519, T315I). In words: Inhibition of Abl T315I mutant.
In assay [9] the target is Tyrosine-protein kinase Fyn (Homo sapiens, UniProt P06241). In words: Inhibition of Fyn.
For assay [10], the target named is Serine/threonine-protein kinase RAF and Dual specificity mitogen-activated protein kinase kinase 1 (Raf/MEK) (Homo sapiens, UniProt P04049+Q02750). The assay is described as follows: Inhibition of Raf1-MEK1. It is filed as protein assay.
Assay [11] addresses Vascular endothelial growth factor receptor 2 (Homo sapiens, UniProt P35968). In words: Inhibition of VEGFR2.

Chain of Proto-oncogene tyrosine-protein kinase Src (P12931 2-536 limits assumed): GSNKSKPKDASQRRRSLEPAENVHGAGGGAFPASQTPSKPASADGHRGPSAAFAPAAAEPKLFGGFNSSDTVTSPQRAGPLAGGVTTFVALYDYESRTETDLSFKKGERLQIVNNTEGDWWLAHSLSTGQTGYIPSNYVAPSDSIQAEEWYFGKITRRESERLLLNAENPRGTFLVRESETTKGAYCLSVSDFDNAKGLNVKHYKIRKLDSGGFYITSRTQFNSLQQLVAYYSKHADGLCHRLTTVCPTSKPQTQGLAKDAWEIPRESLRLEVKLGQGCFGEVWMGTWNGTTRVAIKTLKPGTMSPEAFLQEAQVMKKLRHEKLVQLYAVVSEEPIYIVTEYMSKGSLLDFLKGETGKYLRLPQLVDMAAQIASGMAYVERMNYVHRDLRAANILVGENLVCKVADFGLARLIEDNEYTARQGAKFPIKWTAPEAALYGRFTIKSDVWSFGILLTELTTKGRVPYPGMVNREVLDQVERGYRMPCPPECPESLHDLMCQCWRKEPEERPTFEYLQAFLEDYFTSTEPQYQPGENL
Chain of RAF proto-oncogene serine/threonine-protein kinase (P04049 whole entry): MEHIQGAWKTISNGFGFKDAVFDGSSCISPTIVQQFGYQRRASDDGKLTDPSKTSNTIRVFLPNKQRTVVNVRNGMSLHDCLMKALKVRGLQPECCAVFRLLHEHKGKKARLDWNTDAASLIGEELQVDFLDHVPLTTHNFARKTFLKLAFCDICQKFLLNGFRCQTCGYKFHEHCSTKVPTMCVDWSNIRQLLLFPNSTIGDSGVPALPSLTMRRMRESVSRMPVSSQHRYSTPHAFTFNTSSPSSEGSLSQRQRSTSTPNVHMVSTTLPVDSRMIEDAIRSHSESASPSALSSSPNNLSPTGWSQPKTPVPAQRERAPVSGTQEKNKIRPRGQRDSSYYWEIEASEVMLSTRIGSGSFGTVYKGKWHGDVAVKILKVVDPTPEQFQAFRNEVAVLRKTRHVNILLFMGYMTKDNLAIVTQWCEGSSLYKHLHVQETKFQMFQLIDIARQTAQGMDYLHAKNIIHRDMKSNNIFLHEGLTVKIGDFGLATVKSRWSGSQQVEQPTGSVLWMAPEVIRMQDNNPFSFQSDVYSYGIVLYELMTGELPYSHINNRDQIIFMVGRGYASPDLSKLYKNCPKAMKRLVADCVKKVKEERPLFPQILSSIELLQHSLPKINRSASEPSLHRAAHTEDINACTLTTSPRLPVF
Chain of Tyrosine-protein kinase Lyn (P07948 whole entry): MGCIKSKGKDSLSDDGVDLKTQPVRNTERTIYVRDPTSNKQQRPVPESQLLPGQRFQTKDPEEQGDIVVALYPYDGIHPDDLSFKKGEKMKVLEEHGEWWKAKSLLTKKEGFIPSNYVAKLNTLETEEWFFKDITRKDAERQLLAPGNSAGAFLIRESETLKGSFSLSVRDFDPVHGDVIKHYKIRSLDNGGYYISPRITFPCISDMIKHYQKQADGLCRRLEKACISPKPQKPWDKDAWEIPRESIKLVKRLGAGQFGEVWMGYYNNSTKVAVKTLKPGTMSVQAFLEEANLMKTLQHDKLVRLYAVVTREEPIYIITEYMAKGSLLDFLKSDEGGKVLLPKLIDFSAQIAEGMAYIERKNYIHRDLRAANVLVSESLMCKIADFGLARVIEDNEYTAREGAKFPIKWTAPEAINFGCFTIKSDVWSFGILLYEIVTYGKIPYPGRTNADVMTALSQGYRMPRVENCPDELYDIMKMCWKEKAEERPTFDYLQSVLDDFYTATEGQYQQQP
Chain of Tyrosine-protein kinase Blk (P51451 whole entry): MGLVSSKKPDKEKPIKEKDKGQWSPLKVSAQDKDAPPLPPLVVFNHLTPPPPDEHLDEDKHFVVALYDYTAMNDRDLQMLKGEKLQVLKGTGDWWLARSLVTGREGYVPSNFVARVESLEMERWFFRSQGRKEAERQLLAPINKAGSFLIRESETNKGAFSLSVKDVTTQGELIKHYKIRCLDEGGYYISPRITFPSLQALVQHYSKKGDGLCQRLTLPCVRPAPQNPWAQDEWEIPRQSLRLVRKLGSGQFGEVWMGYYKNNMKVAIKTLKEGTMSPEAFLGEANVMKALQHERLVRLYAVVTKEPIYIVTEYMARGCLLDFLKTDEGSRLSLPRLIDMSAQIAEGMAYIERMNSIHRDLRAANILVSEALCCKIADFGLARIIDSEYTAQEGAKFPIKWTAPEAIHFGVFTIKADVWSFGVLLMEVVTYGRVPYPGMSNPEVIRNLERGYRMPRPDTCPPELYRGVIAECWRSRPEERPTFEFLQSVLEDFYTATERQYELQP
Chain of Ribosomal protein S6 kinase beta-1 (P23443 whole entry): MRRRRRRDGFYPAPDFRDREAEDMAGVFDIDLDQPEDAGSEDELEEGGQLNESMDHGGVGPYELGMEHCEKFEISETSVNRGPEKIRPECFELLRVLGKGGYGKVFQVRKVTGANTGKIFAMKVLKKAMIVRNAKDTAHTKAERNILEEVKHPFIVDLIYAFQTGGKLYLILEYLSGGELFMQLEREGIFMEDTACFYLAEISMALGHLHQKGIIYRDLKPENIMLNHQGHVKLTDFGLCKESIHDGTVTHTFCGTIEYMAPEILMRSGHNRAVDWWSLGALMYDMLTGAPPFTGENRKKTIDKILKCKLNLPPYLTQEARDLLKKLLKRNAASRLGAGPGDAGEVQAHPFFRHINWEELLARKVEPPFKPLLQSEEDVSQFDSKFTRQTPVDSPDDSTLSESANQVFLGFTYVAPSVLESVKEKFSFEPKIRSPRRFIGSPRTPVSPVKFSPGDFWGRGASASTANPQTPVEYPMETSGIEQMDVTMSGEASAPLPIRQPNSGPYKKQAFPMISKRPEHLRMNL
Chain of Angiopoietin-1 receptor (Q02763 whole entry): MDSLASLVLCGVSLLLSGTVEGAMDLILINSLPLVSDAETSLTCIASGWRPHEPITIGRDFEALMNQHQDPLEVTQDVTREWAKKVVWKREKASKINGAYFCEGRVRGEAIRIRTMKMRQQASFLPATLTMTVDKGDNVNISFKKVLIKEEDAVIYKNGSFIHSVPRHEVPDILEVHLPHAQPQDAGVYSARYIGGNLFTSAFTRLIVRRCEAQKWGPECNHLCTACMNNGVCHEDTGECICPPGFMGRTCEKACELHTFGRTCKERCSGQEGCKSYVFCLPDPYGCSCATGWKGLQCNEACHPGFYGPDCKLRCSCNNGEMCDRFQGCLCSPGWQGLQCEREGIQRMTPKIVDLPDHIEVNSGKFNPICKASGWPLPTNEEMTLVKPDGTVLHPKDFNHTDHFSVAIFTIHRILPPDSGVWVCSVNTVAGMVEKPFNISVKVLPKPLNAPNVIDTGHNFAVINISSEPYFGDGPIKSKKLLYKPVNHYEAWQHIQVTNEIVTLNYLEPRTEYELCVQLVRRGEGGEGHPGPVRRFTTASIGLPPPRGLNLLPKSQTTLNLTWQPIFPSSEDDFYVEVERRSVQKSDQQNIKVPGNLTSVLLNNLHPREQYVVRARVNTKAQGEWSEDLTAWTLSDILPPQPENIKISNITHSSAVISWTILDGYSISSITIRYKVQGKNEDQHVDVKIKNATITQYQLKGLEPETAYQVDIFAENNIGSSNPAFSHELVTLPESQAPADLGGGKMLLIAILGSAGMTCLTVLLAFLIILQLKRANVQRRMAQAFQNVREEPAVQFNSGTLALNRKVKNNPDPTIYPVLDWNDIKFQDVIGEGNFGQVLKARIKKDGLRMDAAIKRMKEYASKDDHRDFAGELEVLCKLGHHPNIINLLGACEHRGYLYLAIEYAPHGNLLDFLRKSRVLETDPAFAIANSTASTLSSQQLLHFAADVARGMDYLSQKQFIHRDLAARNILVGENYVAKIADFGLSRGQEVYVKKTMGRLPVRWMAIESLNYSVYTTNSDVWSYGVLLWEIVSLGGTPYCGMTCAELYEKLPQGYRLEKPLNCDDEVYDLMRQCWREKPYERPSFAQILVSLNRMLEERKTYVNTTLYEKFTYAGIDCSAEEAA
Chain of Tyrosine-protein kinase CSK (P41240 whole entry): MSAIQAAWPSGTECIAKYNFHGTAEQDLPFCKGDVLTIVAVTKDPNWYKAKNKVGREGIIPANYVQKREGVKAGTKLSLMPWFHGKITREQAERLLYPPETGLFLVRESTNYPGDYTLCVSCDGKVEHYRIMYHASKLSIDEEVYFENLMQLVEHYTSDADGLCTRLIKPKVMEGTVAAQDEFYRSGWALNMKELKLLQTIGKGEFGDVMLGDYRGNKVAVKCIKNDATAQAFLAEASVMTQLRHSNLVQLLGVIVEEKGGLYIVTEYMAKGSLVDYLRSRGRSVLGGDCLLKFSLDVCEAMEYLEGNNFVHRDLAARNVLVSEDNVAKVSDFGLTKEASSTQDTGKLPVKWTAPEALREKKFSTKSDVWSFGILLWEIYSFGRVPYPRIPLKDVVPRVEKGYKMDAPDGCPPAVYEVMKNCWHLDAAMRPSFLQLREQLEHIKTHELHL
Chain of Tyrosine-protein kinase Fyn (P06241 whole entry): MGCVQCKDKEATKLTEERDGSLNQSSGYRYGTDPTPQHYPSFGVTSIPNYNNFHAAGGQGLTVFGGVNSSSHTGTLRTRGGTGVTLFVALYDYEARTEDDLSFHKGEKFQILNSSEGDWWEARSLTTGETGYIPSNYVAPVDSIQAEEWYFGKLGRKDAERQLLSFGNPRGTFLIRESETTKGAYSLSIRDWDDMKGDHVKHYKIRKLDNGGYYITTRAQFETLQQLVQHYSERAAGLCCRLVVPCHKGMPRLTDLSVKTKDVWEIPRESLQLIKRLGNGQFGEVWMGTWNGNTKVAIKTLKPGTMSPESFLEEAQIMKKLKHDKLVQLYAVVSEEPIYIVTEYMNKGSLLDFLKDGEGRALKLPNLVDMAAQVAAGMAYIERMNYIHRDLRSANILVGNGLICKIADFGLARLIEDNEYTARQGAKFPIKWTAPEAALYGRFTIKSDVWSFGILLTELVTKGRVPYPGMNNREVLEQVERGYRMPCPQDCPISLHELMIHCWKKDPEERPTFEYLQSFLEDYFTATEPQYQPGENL

The term IC50 denotes the concentration that inhibits the measured activity by half. Low readings indicate greater potency in that assay, high ones weaker potency in that assay. On to `Cc1cccc(C)c1-c1cc(C)c2nc(Nc3cccc(S(=O)(=O)N4CCNCC4)c3)nnc2c1`, for which half-maximal inhibition in [1] (IC50) was put at 480 nM. With `Cc1cc(-c2c(Cl)cccc2Cl)cc2nnc(N)nc12`, the 50% inhibitory concentration (IC50) in [1] worked out at 3600 nM. The same measure, in the same setting: for `Cc1cc(C)c(-c2cc(C)c3nc(Nc4ccccc4)nnc3c2)c(C)c1` the value was more than 50000 nM; for `Cc1cccc(C)c1-c1cc(C)c2nc(Nc3cccc4cccnc34)nnc2c1`, more than 50000 nM; for `Cc1cccc(C)c1-c1cc(C)c2nc(N)nnc2c1`, 7400 nM.

In assay [1], `Cc1cc(-c2cc(O)ccc2Cl)cc2nnc(N)nc12` gave an IC50 of 1500 nM.

`CCOC1CN(C)CCN1c1cccc(Nc2nnc3cc(-c4c(C)cccc4C)cc(C)c3n2)c1` (stereo not given) returned a half-maximal inhibitory concentration (IC50) in assay [1] of 41 nM.

In assay [1], `Nc1nnc2cc(-c3ccccc3)ccc2n1` registered a 50% inhibitory concentration (IC50) of more than 50000 nM. For the molecule `Cc1cccc(Nc2nnc3cc(-c4c(C)cccc4C)cc(C)c3n2)c1C`, in assay [1], the IC50 is more than 50000 nM. Still for that read-out and setting: next, `CCN(CC)CCOc1ccc(Nc2nnc3cc(-c4c(C)cccc4C)cc(C)c3n2)cc1`: 10 nM. Still for that read-out and setting: for `Cc1cccc(C)c1-c1cc(C)c2nc(Nc3ccccn3)nnc2c1` the value was more than 50000 nM. The same measure, in the same setting: for `CCCCc1ccc(Nc2nnc3cc(-c4c(C)cccc4C)cc(C)c3n2)cc1` the value was more than 50000 nM. In [1], `Cc1cccc(C)c1-c1cc(C)c2nc(Nc3ccncc3)nnc2c1` displayed an IC50 of 40 nM. Still for that read-out and setting: for `CC(=O)Nc1nnc2cc(-c3c(C)cccc3C)cc(C)c2n1` the value was more than 50000 nM; for `Cc1cccc(C)c1-c1ccc2nc(N)nnc2c1`, 2200 nM; for `Cc1cccc(C)c1-c1cc(C)c2nc(Nc3ccccc3)nnc2c1`, 410 nM. Same read-out and setting: for `Cc1ccc(C)c(Nc2nnc3cc(-c4c(C)cccc4C)cc(C)c3n2)c1` the value was more than 50000 nM; for `CCCOC1CN(C)CCN1c1cccc(Nc2nnc3cc(-c4c(C)cccc4C)cc(C)c3n2)c1` (stereo not given), 40 nM; for `Cc1cc(-c2ccccc2Cl)cc2nnc(N)nc12`, more than 50000 nM. `COc1ccccc1Nc1nnc2cc(-c3c(C)cccc3C)cc(C)c2n1`: the IC50 in assay [1] was more than 50000 nM. Still for that read-out and setting: for `Nc1nnc2cc(-c3ccc4c(c3)OCO4)ccc2n1` the value was 12000 nM; for `Nc1nnc2cc(-c3ccc4ccccc4c3)ccc2n1`, 5200 nM.

In turn, `CCOC1CN(c2ccc(Nc3nnc4cc(-c5c(C)cccc5C)cc(C)c4n3)cc2)CCO1` (stereo not given) had an IC50 in assay [1] of 32 nM.

Regarding `Cc1cccc(C)c1-c1cc(C)c2nc(Nc3ccc(OCCN4CCCC4)cc3)nnc2c1`, the IC50 in assay [2] was found to be 21 nM; in assay [3], 659 nM; in assay [4], 20 nM; at Angiopoietin-1 receptor it was 678 nM; in [5], 68 nM; in [6], 1320 nM. Besides, the IC50 in [7] is 2710 nM; in assay [8], 5990 nM; in assay [9], 23 nM; in [10], 69 nM; in assay [11], 555 nM. Consider `Cc1ccc(Nc2nnc3cc(-c4c(C)cccc4C)cc(C)c3n2)c(C)c1`, for which the IC50 in assay [1] was more than 50000 nM.
